PubChem BioAssay AID256 (DTP/NCI, 2004)
Where “and” joins values, the source holds several entries; their conditions need not be identical. Equal values may be shown once. Toxic doses and inconclusive results are not listed.

Test system: CD2F1 mice, L1210 leukemia ip, survival T/C
Test: NCI In Vivo Anticancer Drug Screen. Data for tumor model L1210 Leukemia (intraperitoneal) in CD2F1 (CDF1) mice
Conditions: higher = longer survival
Summary of the method: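 Each value reflects a quotient of treated over vehicle control outcomes in mice with a transplanted tumor.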

[1] = endpoint: mean survival time, dose: 12.5 mg/kg/injection, schedule: Q04DX002 (ip), vehicle: saline with Tween-80
[2] = endpoint: mean survival time, dose: 25.0 mg/kg/injection, schedule: Q04DX002 (ip), vehicle: saline with Tween-80
[3] = endpoint: mean survival time, dose: 100.0 mg/kg/injection, schedule: Q04DX003 (ip), vehicle: saline with Tween-80
[4] = endpoint: mean survival time, dose: 200.0 mg/kg/injection, schedule: Q01DX009 (ip), vehicle: saline with Tween-80
[5] = endpoint: mean survival time, dose: 200.0 mg/kg/injection, schedule: Q04DX003 (ip), vehicle: saline with Tween-80
[6] = endpoint: mean survival time, dose: 400.0 mg/kg/injection, schedule: Q04DX003 (ip), vehicle: saline with Tween-80
[7] = endpoint: mean survival time, dose: 100.0 mg/kg/injection, schedule: Q01DX009 (ip), vehicle: saline with Tween-80
[8] = endpoint: mean survival time, dose: 400.0 mg/kg/injection, schedule: Q01DX009 (ip), vehicle: saline with Tween-80

In the case of `c1ccc2c3c(c4c(c2c1)CN(C1CCCCC1)CO4)OCN(C1CCCCC1)C3`, the T/C (endpoint: median survival time, dose: 0.19 mg/kg/injection, schedule: Q01DX009 (ip), vehicle: other) is reported as 101 % of control, the T/C (endpoint: median survival time, dose: 0.38 mg/kg/injection, schedule: Q01DX009 (ip), vehicle: other) is reported as 101 % of control and the T/C (endpoint: median survival time, dose: 0.75 mg/kg/injection, schedule: Q01DX009 (ip), vehicle: other) is reported as 98 % of control. The T/C (endpoint: median survival time, dose: 1.5 mg/kg/injection, schedule: Q01DX009 (ip), vehicle: other) was 98 % of control.

`CC1=C(C)C(=O)O[C@@H]([C@](C)(O)[C@]2(O)CC[C@@]3(O)[C@@H]4C[C@H]5O[C@]56[C@@H](O)C=CC(=O)[C@]6(C)[C@H]4CC[C@]23C)C1` was tested, and the T/C (endpoint: mean survival time, dose: 1.0 mg/kg/injection, schedule: Q01DX009 (ip), vehicle: saline) was 113 % of control, the T/C (endpoint: mean survival time, dose: 2.0 mg/kg/injection, schedule: Q01DX009 (ip), vehicle: saline) was 104 % of control and the T/C (endpoint: mean survival time, dose: 2.0 mg/kg/injection, schedule: Q01DX009 (ip), vehicle: suspension in saline) was 105 % of control. The T/C (endpoint: mean survival time, dose: 4.0 mg/kg/injection, schedule: Q01DX009 (ip), vehicle: saline) was 106 % of control, the T/C (endpoint: mean survival time, dose: 4.0 mg/kg/injection, schedule: Q01DX009 (ip), vehicle: suspension in saline) was 108 % of control and the T/C (endpoint: mean survival time, dose: 8.0 mg/kg/injection, schedule: Q01DX009 (ip), vehicle: saline) was 111 % of control. The T/C (endpoint: mean survival time, dose: 8.0 mg/kg/injection, schedule: Q01DX009 (ip), vehicle: suspension in saline) was 114 % of control, the T/C (endpoint: mean survival time, dose: 16.0 mg/kg/injection, schedule: Q01DX009 (ip), vehicle: saline) was 103 % of control and the T/C (endpoint: mean survival time, dose: 16.0 mg/kg/injection, schedule: Q01DX009 (ip), vehicle: suspension in saline) was 108 % of control. For the same compound, the T/C (endpoint: mean survival time, dose: 32.0 mg/kg/injection, schedule: Q01DX009 (ip), vehicle: saline) was 87 % of control and the T/C (endpoint: mean survival time, dose: 32.0 mg/kg/injection, schedule: Q01DX009 (ip), vehicle: suspension in saline) was 96 % of control.

In the case of `CN=C(N)CS`, the T/C (endpoint: mean survival time, dose: 25.0 mg/kg/injection, schedule: Q04DX002 (ip), vehicle: saline) is reported as 101 % of control, the T/C (endpoint: mean survival time, dose: 50.0 mg/kg/injection, schedule: Q04DX002 (ip), vehicle: saline) is reported as 101 % of control and the T/C (endpoint: mean survival time, dose: 100.0 mg/kg/injection, schedule: Q04DX002 (ip), vehicle: saline) is reported as 101 % of control.

`CCC12CC(Br)C(C1)OC2=O` (configuration not stated) was tested, and the T/C (endpoint: mean survival time, dose: 100.0 mg/kg/injection, schedule: Q01DX009 (ip), vehicle: other) was 96 % of control, the T/C (endpoint: mean survival time, dose: 200.0 mg/kg/injection, schedule: Q01DX009 (ip), vehicle: other) was 101 % of control and the T/C (endpoint: mean survival time, dose: 400.0 mg/kg/injection, schedule: Q01DX009 (ip), vehicle: other) was 100 % of control.

`CCCC(C#N)(CCC)C(=O)OCC` was tested, and the T/C (endpoint: mean survival time, dose: 12.5 mg/kg/injection, schedule: Q01DX001 (ip), vehicle: Klucel (hydroxypropylcellulose) (HPC)) was 102 % of control, the T/C (endpoint: mean survival time, dose: 25.0 mg/kg/injection, schedule: Q01DX001 (ip), vehicle: Klucel (hydroxypropylcellulose) (HPC)) was 99 % of control and the T/C (endpoint: mean survival time, dose: 50.0 mg/kg/injection, schedule: Q01DX001 (ip), vehicle: Klucel (hydroxypropylcellulose) (HPC)) was 99 % of control.

`NC(=O)c1[nH]cnc1O` was tested, and the T/C (endpoint: median survival time, dose: 25.0 mg/kg/injection, schedule: Q01DX005 (ip), vehicle: saline with Tween-80) was 109 % of control and 110 % of control, the T/C (endpoint: median survival time, dose: 50.0 mg/kg/injection, schedule: Q01DX005 (ip), vehicle: saline with Tween-80) was 113 % of control and 112 % of control and the T/C (endpoint: median survival time, dose: 100.0 mg/kg/injection, schedule: Q01DX005 (ip), vehicle: saline with Tween-80) was 116 % of control and 119 % of control. For the same compound, the T/C (endpoint: median survival time, dose: 144.0 mg/kg/injection, schedule: Q01DX005 (ip), vehicle: saline with Tween-80) was 117 % of control, the T/C (endpoint: median survival time, dose: 200.0 mg/kg/injection, schedule: Q01DX005 (ip), vehicle: saline with Tween-80) was 118 % of control and 120 % of control and the T/C (endpoint: median survival time, dose: 400.0 mg/kg/injection, schedule: Q01DX005 (ip), vehicle: saline with Tween-80) was 120 % of control.

With `CC(O)CN=C(N)C(N)=NCC(C)O` (configuration not stated) the T/C [1] was 108 % of control, the T/C [2] was 101 % of control and the T/C (endpoint: mean survival time, dose: 50.0 mg/kg/injection, schedule: Q04DX002 (ip), vehicle: saline with Tween-80) was 97 % of control.

For `NC(CSS(=O)(=O)O)=NCCCCN=C(N)CSS(=O)(=O)O`, the T/C (endpoint: mean survival time, dose: 6.25 mg/kg/injection, schedule: Q04DX002 (ip), vehicle: saline with Tween-80) was 103 % of control, the T/C [1] was 106 % of control and the T/C [2] was 95 % of control.

In the case of `C[n+]1cccc(C=O)c1`, the T/C (endpoint: mean survival time, dose: 100.0 mg/kg/injection, schedule: Q01DX001 (ip), vehicle: saline) is reported as 103 % of control, the T/C (endpoint: mean survival time, dose: 200.0 mg/kg/injection, schedule: Q01DX001 (ip), vehicle: saline) is reported as 105 % of control and the T/C (endpoint: mean survival time, dose: 400.0 mg/kg/injection, schedule: Q01DX001 (ip), vehicle: saline) is reported as 108 % of control.

For `O=[N+]([O-])c1ccc(/C=N\N=C\c2ccco2)cc1`, the T/C [3] was 88 % of control, the T/C [4] was 86 % of control and the T/C [5] was 111 % of control. The T/C [6] was 102 % of control.

`S=C1NC(c2ccccc2)NC(c2ccccc2)S1` (configuration not stated) was tested, and the T/C (endpoint: mean survival time, dose: 12.0 mg/kg/injection, schedule: Q04DX003 (ip), vehicle: other) was 86 % of control, the T/C (endpoint: mean survival time, dose: 25.0 mg/kg/injection, schedule: Q04DX003 (ip), vehicle: other) was 97 % of control and the T/C (endpoint: mean survival time, dose: 50.0 mg/kg/injection, schedule: Q04DX003 (ip), vehicle: other) was 90 % of control.

For `C=C1C(=O)OC2CC1C(OC(C)=O)CC1(C)OC1CCC1(C)OC1CCC2(C)O` (configuration not stated), the T/C (endpoint: mean survival time, dose: 6.25 mg/kg/injection, schedule: Q01DX009 (ip), vehicle: Klucel (hydroxypropylcellulose) (HPC)) was 102 % of control, the T/C (endpoint: mean survival time, dose: 12.5 mg/kg/injection, schedule: Q01DX009 (ip), vehicle: Klucel (hydroxypropylcellulose) (HPC)) was 107 % of control and the T/C (endpoint: mean survival time, dose: 25.0 mg/kg/injection, schedule: Q01DX009 (ip), vehicle: Klucel (hydroxypropylcellulose) (HPC)) was 105 % of control.

In the case of `O=C(O)C1CCC[N-]C1.O=C(O)C1CCC[N-]C1.[Cl][Pt+2][Cl]` (configuration not stated), the T/C (endpoint: mean survival time, dose: 5.0 mg/kg/injection, schedule: Q04DX003 (ip), vehicle: saline with Tween-80) is reported as 95 % of control, the T/C (endpoint: mean survival time, dose: 10.0 mg/kg/injection, schedule: Q04DX003 (ip), vehicle: saline with Tween-80) is reported as 112 % of control and the T/C (endpoint: mean survival time, dose: 20.0 mg/kg/injection, schedule: Q04DX003 (ip), vehicle: saline with Tween-80) is reported as 107 % of control.

For `Nc1ncnc2c1c(-c1nnc3c(n1)-c1ccccc1C3=O)cn2C1OC(CO)C(O)C1O` (configuration not stated), the T/C (endpoint: mean survival time, dose: 100.0 mg/kg/injection, schedule: Q01DX005 (ip), vehicle: saline) was 100 % of control and the T/C (endpoint: mean survival time, dose: 200.0 mg/kg/injection, schedule: Q01DX005 (ip), vehicle: saline) was 100 % of control.

For `CCOC(=O)c1ccc(NC(=O)Oc2ccc(NC(C)=O)cc2)cc1`, the T/C [7] was 95 % of control and 102 % of control, the T/C (endpoint: mean survival time, dose: 100.0 mg/kg/injection, schedule: Q04DX002 (ip), vehicle: saline with Tween-80) was 91 % of control and 94 % of control and the T/C [3] was 89 % of control. The T/C [4] was 96 % of control and 100 % of control, the T/C (endpoint: mean survival time, dose: 200.0 mg/kg/injection, schedule: Q04DX002 (ip), vehicle: saline with Tween-80) was 94 % of control and 105 % of control and the T/C [5] was 86 % of control. For the same compound, the T/C [8] was 92 % of control and 96 % of control, the T/C (endpoint: mean survival time, dose: 400.0 mg/kg/injection, schedule: Q04DX002 (ip), vehicle: saline with Tween-80) was 92 % of control and the T/C [6] was 86 % of control.

With `CC(=O)OCC1OC(c2nn(C(C)=O)c(C(N)=O)c2O)C(OC(C)=O)C1OC(C)=O` (configuration not stated) the T/C (endpoint: median survival time, dose: 25.0 mg/kg/injection, schedule: Q01DX005 (ip), vehicle: saline) was 153 % of control, the T/C (endpoint: median survival time, dose: 50.0 mg/kg/injection, schedule: Q01DX005 (ip), vehicle: saline) was 166 % of control and the T/C (endpoint: median survival time, dose: 100.0 mg/kg/injection, schedule: Q01DX005 (ip), vehicle: saline) was 96 % of control.

For `N=Cc1c(O)n(-c2ccccc2)c(=O)[nH]c1=O`, the T/C [7] was 101 % of control, the T/C [3] was 94 % of control and the T/C [4] was 101 % of control. The T/C [5] was 92 % of control, the T/C [8] was 104 % of control and the T/C [6] was 97 % of control.

`CCCCCCCCCCCCCCCCCC[N+](CC)(CC)CC` was tested, and the T/C (endpoint: mean survival time, dose: 0.75 mg/kg/injection, schedule: Q01DX001 (ip), vehicle: Klucel (hydroxypropylcellulose) (HPC)) was 91 % of control, the T/C (endpoint: mean survival time, dose: 1.5 mg/kg/injection, schedule: Q01DX001 (ip), vehicle: Klucel (hydroxypropylcellulose) (HPC)) was 108 % of control and the T/C (endpoint: mean survival time, dose: 3.0 mg/kg/injection, schedule: Q01DX001 (ip), vehicle: Klucel (hydroxypropylcellulose) (HPC)) was 100 % of control.

With `Cc1ccc(NC(=S)NCCO)cc1C` the T/C [7] was 114 % of control.

For `CC(=O)Nc1nc(/C=C\c2ccc([N+](=O)[O-])cc2)c(CCCCc2ccccc2)c(=O)[nH]1`, the T/C (endpoint: mean survival time, dose: 3.13 mg/kg/injection, schedule: Q01DX001 (ip), vehicle: saline with Tween-80) was 98 % of control, the T/C (endpoint: mean survival time, dose: 6.25 mg/kg/injection, schedule: Q01DX001 (ip), vehicle: saline with Tween-80) was 96 % of control and the T/C (endpoint: mean survival time, dose: 12.5 mg/kg/injection, schedule: Q01DX001 (ip), vehicle: saline with Tween-80) was 98 % of control.

`COc1ccccc1C1C=CCCCC1` (configuration not stated) was tested, and the T/C (endpoint: mean survival time, dose: 100.0 mg/kg/injection, schedule: Q04DX003 (ip), vehicle: saline) was 95 % of control, the T/C (endpoint: mean survival time, dose: 200.0 mg/kg/injection, schedule: Q04DX003 (ip), vehicle: saline) was 93 % of control and the T/C (endpoint: mean survival time, dose: 400.0 mg/kg/injection, schedule: Q04DX003 (ip), vehicle: saline) was 96 % of control.
